How the values were obtained:
wild oat = test: Test C pre-/postemergence test; format: in vivo, Avena fatua; conditions: Preemergence
Summary of the method: (§1)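 Test chemicals were formulated with surfactant in a non-phytotoxic solvent and sprayed both on freshly planted seeds (preemergence) and on 1- to 4-leaf plants of 2–18 cm (postemergence). Flooded-paddy pots received compound directly into 3 cm of standing water, maintained for the test.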

velvetleaf [1] = test: Test A pre-/postemergence greenhouse test; format: in vivo, Abutilon theophrasti; conditions: for Velvetleaf plant response rating: 0 to 100 scale
Summary of the method: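 Visual injury ratings, made relative to untreated controls roughly ten days after treatment, cover both preemergence and postemergence application. Compounds in a surfactant-containing non-phytotoxic solvent were sprayed onto the soil surface after sowing and, simultaneously, onto young plants at the one- to two-leaf stage.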

johnsongrass = test: Test C pre-/postemergence test; format: in vivo, Sorghum halepense; conditions: Preemergence
Summary of the method: as §1

cocklebur = test: Test C pre-/postemergence test; format: in vivo, Xanthium strumarium
Summary of the method: as §1

green foxtail = test: Test C pre-/postemergence test; format: in vivo, Setaria viridis; conditions: Preemergence
Summary of the method: as §1

morningglory = test: Test C pre-/postemergence test; format: in vivo, Ipomoea coccinea; conditions: Preemergence
Summary of the method: as §1

corn = test: Test C pre-/postemergence test; format: in vivo, Zea mays
Summary of the method: as §1

woolly cupgrass = test: Test C pre-/postemergence test; format: in vivo, Eriochloa villosa; conditions: Preemergence
Summary of the method: as §1

downy brome = test: Test C pre-/postemergence test; format: in vivo, Bromus tectorum
Summary of the method: as §1

soybean = test: Test C pre-/postemergence test; format: in vivo, Glycine max; conditions: Preemergence
Summary of the method: as §1

velvetleaf [2] = test: Test C pre-/postemergence test; format: in vivo, Abutilon theophrasti; conditions: Preemergence
Summary of the method: as §1

duck salad = test: Test C flooded paddy test; format: in vivo, Heteranthera limosa; conditions: Flood
Summary of the method: (§2)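 Greenhouse pots flooded to 3 cm above soil at time of treatment received compound via the water, which stayed at that level.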

blackgrass = test: Test C pre-/postemergence test; format: in vivo, Alopecurus myosuroides
Summary of the method: as §1

giant foxtail = test: Test C pre-/postemergence test; format: in vivo, Setaria faberii; conditions: Preemergence
Summary of the method: as §1

Italian ryegrass = test: Test C pre-/postemergence test; format: in vivo, Lolium multiflorum; conditions: Preemergence
Summary of the method: as §1

catchweed bedstraw = test: Test C pre-/postemergence test; format: in vivo, Galium aparine; conditions: Preemergence
Summary of the method: as §1

barnyardgrass = test: Test C flooded paddy test; format: in vivo, Echinochloa crus-galli; conditions: Flood
Summary of the method: as §2

[3] = 31 g ai/ha, scale 0 to 100 (0 no effect, 100 complete control)
[4] = 62 g ai/ha, Preemergence, scale 0 to 100
[5] = Preemergence, 31 g ai/ha, scale 0 to 100 (0 no effect, 100 complete control)
[6] = preemergence, 125 g ai/ha, scale 0 (no effect) to 100 (complete control)
[7] = 62 g ai/ha, scale 0 to 100, 0 no effect, 100 complete control, 13 to 15 days
[8] = 125 g ai/ha, scale 0 to 100, 0 no effect, 100 complete control, 13 to 15 days
[9] = 250 g ai/ha, scale 0 to 100 (0 no effect, 100 complete control)

Compound: Cn1nc(C(F)(F)F)c(CS(=O)(=O)c2cc(C(C)(C)C)cc[n+]2[O-])c1OC(F)F [Compound 25]
- Oat, Wild plant response rating (wild oat; 62 g ai/ha, scale 0 to 100): 85
- Plant response rating, Oat, Wild (wild oat; [3]): 0
- Velvetleaf plant response rating (velvetleaf [1]; Postemergence, 125 g ai/ha, 0 is no effect, 100 is complete control): 30
- Velvetleaf plant response rating (velvetleaf [1]; Postemergence, 500 g ai/ha, 0 is no effect, 100 is complete control): 50
- Velvetleaf plant response rating (velvetleaf [1]; Preemergence, 125 g ai/ha, 0 no effect, 100 complete control): 60
- Plant response rating, Velvetleaf (velvetleaf [1]; Preemergence, 500 g ai/ha, 0 to 100 scale where 0 is no effect and 100 is complete control): 100
- Johnsongrass plant response rating (johnsongrass; 62 g ai/ha, scale 0 to 100): 98
- Plant response rating, Johnsongrass (johnsongrass; [3]): 70
- Plant response rating (0 to 100), Johnsongrass (johnsongrass; 250 g ai/ha): 100
- Cocklebur plant response rating (cocklebur; [4]): 0
- Plant response rating, Cocklebur (cocklebur; [5]): 0
- Plant response rating (0 to 100), Cocklebur (cocklebur; Preemergence, 250 g ai/ha): 0
- Cocklebur plant response rating (cocklebur; [6]): 0
- Foxtail, Green plant response rating (green foxtail; 62 g ai/ha, scale 0 to 100): 98
- Plant response rating, Foxtail, Green (green foxtail; [3]): 80
- Plant response rating (0 to 100), Foxtail, Green (green foxtail; 250 g ai/ha): 100
- Morningglory plant response rating (morningglory; 62 g ai/ha, scale 0 to 100): 50
- Plant response rating, Morningglory (morningglory; [3]): 0
- Corn plant response rating (corn; [4]): 20
- Plant response rating, Corn (corn; [5]): 0
- Plant response rating (0 to 100), Corn (corn; Preemergence, 250 g ai/ha): 60
- Corn plant response rating (corn; [6]): 60
- Cupgrass, Woolly plant response rating (woolly cupgrass; 62 g ai/ha, scale 0 to 100): 60
- Plant response rating, Cupgrass, Woolly (woolly cupgrass; [3]): 40
- Plant response rating (0 to 100), Cupgrass, Woolly (woolly cupgrass; 250 g ai/ha): 100
- Bromegrass, Downy plant response rating (downy brome; [4]): 0
- Plant response rating, Bromegrass, Downy (downy brome; [5]): 0
- Plant response rating (0 to 100), Bromegrass, Downy (downy brome; Preemergence, 250 g ai/ha): 50
- Bromegrass, Downy plant response rating (downy brome; [6]): 0
- Soybean plant response rating (soybean; 62 g ai/ha, scale 0 to 100): 20
- Plant response rating, Soybean (soybean; [3]): 0
- Velvetleaf plant response rating (velvetleaf [2]; 62 g ai/ha, scale 0 to 100): 80
- Plant response rating, Velvetleaf (velvetleaf [2]; [3]): 20
- Plant response rating, Ducksalad (duck salad; [3]): 0
- Plant response rating, Ducksalad (duck salad; [7]): 40
- Plant response rating, Ducksalad (duck salad; [8]): 60
- Plant response rating, Ducksalad (duck salad; [9]): 80
- Blackgrass plant response rating (blackgrass; [4]): 0
- Plant response rating, Blackgrass (blackgrass; [5]): 0
- Plant response rating (0 to 100), Blackgrass (blackgrass; Preemergence, 250 g ai/ha): 0
- Blackgrass plant response rating (blackgrass; [6]): 0
- Foxtail, Giant plant response rating (giant foxtail; 62 g ai/ha, scale 0 to 100): 85
- Plant response rating, Foxtail, Giant (giant foxtail; [3]): 40
- Ryegrass, Italian plant response rating (Italian ryegrass; 62 g ai/ha, scale 0 to 100): 0
- Plant response rating, Ryegrass, Italian (Italian ryegrass; [3]): 0
- Galium plant response rating (catchweed bedstraw; 62 g ai/ha, scale 0 to 100): 98
- Plant response rating, Galium (catchweed bedstraw; [3]): 70
- Plant response rating (0 to 100), Galium (catchweed bedstraw; 250 g ai/ha): 100
- Plant response rating, Barnyardgrass (barnyardgrass; [3]): 0
- Plant response rating, Barnyardgrass (barnyardgrass; [7]): 0
- Plant response rating, Barnyardgrass (barnyardgrass; [8]): 30
- Plant response rating, Barnyardgrass (barnyardgrass; [9]): 80
